This is an account of results in patent US20250320203A1, “4-(3H-PYRAZOLO[4,3-F]QUINOLIN-7-YL)-N-(2-(DIMETHYLAMINO)ETHYL)BENZAMIDE- OR HYDROXAMIC ACID COMPOUNDS, COMPOSITIONS, AND METHODS OF USE” (Purdue Research Foundation, priority 2022, published 2025).

The subject of one test is Molm 14-ITD-D835Y. The experiment in a line: Cell viability GI50, Molm 14-ITD-D835Y. The class given is cell-based. The following applies: Homo sapiens; 72 hours. The procedure:
(§1) More specifically, cells were cultured to confluence in RPMI medium supplemented with 10% fetal bovine serum and 1× Penicillin-Streptomycin (Gibco™). Cells were plated at 5,000 cells/well in 96 well plates. After 24-hour incubation at 37° C. in a 5% CO2 incubator, compounds diluted in the same media were added to the indicated final concentration and allowed to incubate at 37° C. in a 5% CO2 incubator for 72 hours. Viability was determined using CellTiter-Blue® Cell Viability Assay (Promega, Madison, WI) with absorbance readings at 570 nm performed on a Cytation™ 5 Cell Imaging Multi-Mode Reader (BioTek) 3 hours after addition. Appropriate vehicle and cell-free controls were included. GI50 readings were confirmed by two scientists on two separate days.
(§2) Scholl et al. (2020), supra. Accordingly, Compound HSK205 was evaluated against Molm-14 cell lines that harbor resistant mutations commonly found in the clinic, FLT3-ITD-D835Y and F691L (FIG. 15).

In another test the target is T1, FLT3-ITD (Homo sapiens, UniProt P36888).
T1 sequence (P36888 1-993): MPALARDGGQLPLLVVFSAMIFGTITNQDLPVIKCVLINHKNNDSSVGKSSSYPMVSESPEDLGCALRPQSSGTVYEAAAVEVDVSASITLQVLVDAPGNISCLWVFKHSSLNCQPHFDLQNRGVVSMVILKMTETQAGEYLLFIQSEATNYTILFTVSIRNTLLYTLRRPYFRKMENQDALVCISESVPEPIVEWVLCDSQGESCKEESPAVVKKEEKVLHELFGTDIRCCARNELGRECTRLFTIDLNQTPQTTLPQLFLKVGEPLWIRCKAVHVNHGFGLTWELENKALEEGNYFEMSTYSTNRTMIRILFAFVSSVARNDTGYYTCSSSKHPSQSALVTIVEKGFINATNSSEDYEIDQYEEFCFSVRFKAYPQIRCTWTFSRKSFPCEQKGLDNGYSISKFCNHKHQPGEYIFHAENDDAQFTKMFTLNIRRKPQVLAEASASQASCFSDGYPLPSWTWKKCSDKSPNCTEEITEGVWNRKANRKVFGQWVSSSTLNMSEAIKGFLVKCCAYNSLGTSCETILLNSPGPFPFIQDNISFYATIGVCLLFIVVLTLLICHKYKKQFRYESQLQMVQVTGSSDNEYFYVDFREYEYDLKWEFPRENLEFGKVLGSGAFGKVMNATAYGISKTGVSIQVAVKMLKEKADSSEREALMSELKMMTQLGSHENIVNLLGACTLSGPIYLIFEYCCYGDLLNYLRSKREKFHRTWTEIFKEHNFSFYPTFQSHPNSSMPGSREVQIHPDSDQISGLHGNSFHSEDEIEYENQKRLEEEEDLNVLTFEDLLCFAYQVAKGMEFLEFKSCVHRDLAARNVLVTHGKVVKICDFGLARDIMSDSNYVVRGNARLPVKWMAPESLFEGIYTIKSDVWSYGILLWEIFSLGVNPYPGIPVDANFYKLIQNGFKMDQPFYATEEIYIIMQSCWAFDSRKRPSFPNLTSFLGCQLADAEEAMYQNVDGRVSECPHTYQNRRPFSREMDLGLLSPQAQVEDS
The experiment in a line: FLT3-ITD enzyme inhibition, 10-dose IC50 (Reaction Biology). The class given is biochemical. The settings on record: 10 μM ATP.

Test [1] concerns histone H3 (Thr3) phosphorylation by haspin. The experiment in a line: Western blot, histone H3 (Thr3) phosphorylation by haspin in Molm-14 cells. Format: cell-based, human. The settings on record: 24 hours, HSK205 5, 20 or 100 nM, gilteritinib 100 nM. The procedure: Whether Compound HSK205 does indeed inhibit haspin in AML cells was then evaluated, and immunoblotting was performed to confirm inhibition of histone H3 (Thr3)phosphorylation by haspin (FIG. 13A). […] The samples were subsequently analyzed for the phosphorylation of histone H3 (Thr3).
Acute myeloid leukemia cells (Molm-14) were incubated with various concentrations of compound as specified. Cells were collected and lysed, and protein concentrations were quantified relative to BSA standards. After protein denaturation, proteins were separated via SDS-PAGE electrophoresis and transferred to NC membranes. After blocking, overnight incubation with specific primary antibodies, and room temperature incubation for 2 hours with peroxidase-conjugated secondary antibodies, peroxidase activity was detected with SuperSignal West Pico reagents (Thermo Scientific) using a CCD camera LAS-4000 (Fujifilm). Bands were normalized using housekeeping gene, Actin. Values reported represent the means of triplicates and error bars represent SD. All specific antibodies were purchased from Cell Signaling.

The next test has as its system Molm-14-ITD-F691L. The experiment in a line: Cell viability GI50, Molm-14-ITD-F691L. The class given is cell-based. The following applies: Homo sapiens; 72 hours. As for the experimental part: as §1, §2
The next test has as its system Molm-14 cells (FLT3-ITD). The experiment in a line: AML cell line growth inhibition (CellTiter-Blue), 50 nM. The class given is cell-based. The following applies: Homo sapiens, 50 nM inhibitor conc., means of triplicates, read-out: Percent Inhibition (%) Molm-14 growth. As for the experimental part:
With the amide kinase inhibitor library established, kinase inhibition and AML cell line (Molm-14, which harbors FLT3-ITD) growth inhibition were analyzed (Table 1). More specifically, Haspin and FLT3 inhibition were evaluated in-house via ADP Glo Kinase Assay (Promega, Madison, WI). […] Values reported are means of triplicates.
as §1

Turning to `Cc1c[nH]c(CNC(=O)c2ccc(-c3nc4ccc5[nH]ncc5c4c4c3CCCC4)cc2)n1` [Compound HSK205], the GI50 came out at 4.3 nM in the test on Molm 14-ITD-D835Y and 2.2 nM in the test on Molm-14-ITD-F691L. At FLT3-ITD, this compound gave an IC50 of under 0.5 nM. Moreover, the “phosphorylation of histone H3 (Thr3)” value in test [1] was “effective in reducing phosphyorlation of histone H3 (Thr3)”. Further, in the test with Molm-14 cells (FLT3-ITD), the inhibition at 0.05 µM came to 96%.
